Test results from ChEMBL document CHEMBL1201862, “PubChem BioAssay data set” (2004).
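Method: 48-hour compound exposure of cells in 96-well plates, five concentrations, linear interpolation of endpoints. Abbreviation: GI50, concentration required for 50% inhibition of growth.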 The source made the active and inactive calls. Cut-off read from the data, not from the text of the source: active = GI50 up to about 1.1 µM and inactive = higher.

How the values were obtained:
Experiment in all cases: DTP human tumour cell line panel, 48 h
[1] = test system: MCF7
[2] = test system: M14
[3] = test system: COLO 205
[4] = test system: U-251
[5] = test system: HCT-15
[6] = test system: RPMI-8226
[7] = test system: NCI/ADR-RES
[8] = test system: SN12C
[9] = test system: SNB-19
[10] = test system: UACC-257
[11] = test system: UACC-62
[12] = test system: HCC 2998
[13] = test system: SK-OV-3
[14] = test system: NCI-H226
[15] = test system: EKVX
[16] = test system: OVCAR-5
[17] = test system: CCRF-CEM
[18] = test system: PC-3
[19] = test system: SK-MEL-2
[20] = test system: CAKI-1
[21] = test system: HOP-92
[22] = test system: OVCAR-3
[23] = test system: NCI-H23
[24] = test system: ACHN
[25] = test system: SF-539
[26] = test system: A549
[27] = test system: HL-60
[28] = test system: T47D
[29] = test system: UO-31
[30] = test system: IGROV-1
[31] = test system: NCI-H460
[32] = test system: DU-145
[33] = test system: OVCAR-4
[34] = test system: HCT-116
[35] = test system: RXF 393
[36] = test system: LOX IMVI
[37] = test system: SF-295
[38] = test system: MOLT-4
[39] = test system: 786-0
[40] = test system: SNB-75
[41] = test system: MDA-MB-231
[42] = test system: HOP-62
[43] = test system: SF-268
[44] = test system: Malme-3M
[45] = test system: OVCAR-8
[46] = test system: KM12
[47] = test system: MDA-MB-435
[48] = test system: BT-549
[49] = test system: Hs-578T
[50] = test system: SK-MEL-5
[51] = test system: SW-620
[52] = test system: TK-10
[53] = test system: SK-MEL-28
[54] = test system: K562
[55] = test system: HT-29
[56] = test system: A498
[57] = test system: SR

CCN1C(=O)C(=Cc2ccc(-c3ccccc3)cc2)C(=O)N(CC)C1=S
GI50 [1]: > 100 µM (inactive)
GI50 [2]: > 100 µM (inactive)
GI50 [3]: > 100 µM (inactive)
GI50 [4]: 75.2 µM (inactive)
GI50 [5]: > 100 µM
GI50 [6]: > 100 µM (inactive)
GI50 [7]: 34.7 µM (inactive)
GI50 [8]: > 100 µM (inactive)
GI50 [9]: > 100 µM (inactive)
GI50 [10]: > 100 µM (inactive)
GI50 [11]: > 100 µM (inactive)
GI50 [12]: > 100 µM (inactive)
GI50 [13]: > 100 µM (inactive)
GI50 [14]: > 100 µM (inactive)
GI50 [15]: > 100 µM (inactive)
GI50 [16]: > 100 µM (inactive)
GI50 [17]: 48.9 µM (inactive)
GI50 [18]: > 100 µM (inactive)
GI50 [19]: > 100 µM (inactive)
GI50 [20]: > 100 µM (inactive)
GI50 [21]: > 100 µM (inactive)
GI50 [22]: > 100 µM (inactive)
GI50 [23]: > 100 µM (inactive)
GI50 [24]: > 100 µM (inactive)
GI50 [25]: > 100 µM (inactive)
GI50 [26]: > 100 µM (inactive)
GI50 [27]: 35.5 µM (inactive)
GI50 [28]: > 100 µM (inactive)
GI50 [29]: 79.4 µM (inactive)
GI50 [30]: > 100 µM (inactive)
GI50 [31]: > 100 µM (inactive)
GI50 [32]: > 100 µM (inactive)
GI50 [33]: > 100 µM (inactive)
GI50 [34]: 97.3 µM (inactive)
GI50 [35]: > 100 µM (inactive)
GI50 [36]: > 100 µM (inactive)
GI50 [37]: > 100 µM (inactive)
GI50 [38]: 30.3 µM (inactive)
GI50 [39]: > 100 µM (inactive)
GI50 [40]: 71.8 µM (inactive)
GI50 [41]: > 100 µM (inactive)
GI50 [42]: > 100 µM (inactive)
GI50 [43]: > 100 µM (inactive)
GI50 [44]: > 100 µM (inactive)
GI50 [45]: > 100 µM (inactive)
GI50 [46]: > 100 µM (inactive)
GI50 [47]: > 100 µM (inactive)
GI50 [48]: > 100 µM (inactive)
GI50 [49]: > 100 µM (inactive)
GI50 [50]: > 100 µM (inactive)
GI50 [51]: > 100 µM (inactive)
GI50 [52]: > 100 µM (inactive)
GI50 [53]: > 100 µM (inactive)
GI50 [54]: 38.5 µM (inactive)
GI50 [55]: > 100 µM (inactive)

CCOC(=O)CCC(NC(=O)c1ccc(Nc2nc3cc(C(F)(F)F)ccc3nc2-c2ccccc2)cc1)C(=O)OCC (stereo not drawn)
GI50 [1]: 20.6 µM (inactive)
GI50 [2]: > 100 µM (inactive)
GI50 [3]: 22.4 µM (inactive)
GI50 [4]: 25.3 µM (inactive)
GI50 [5]: 24.7 µM
GI50 [6]: 24.7 µM (inactive)
GI50 [7]: 19.5 µM (inactive)
GI50 [8]: 19.3 µM (inactive)
GI50 [9]: 21.5 µM (inactive)
GI50 [10]: 22.8 µM (inactive)
GI50 [11]: 13.3 µM (inactive)
GI50 [12]: 24.3 µM (inactive)
GI50 [13]: 30.5 µM (inactive)
GI50 [14]: 20.7 µM (inactive)
GI50 [15]: 20.2 µM (inactive)
GI50 [16]: > 100 µM (inactive)
GI50 [17]: 27.8 µM (inactive)
GI50 [18]: > 100 µM (inactive)
GI50 [19]: > 100 µM (inactive)
GI50 [20]: 20.5 µM (inactive)
GI50 [21]: 17.7 µM (inactive)
GI50 [22]: > 100 µM (inactive)
GI50 [23]: 20.7 µM (inactive)
GI50 [24]: 21 µM (inactive)
GI50 [25]: 31.3 µM (inactive)
GI50 [56]: 5.35 µM (inactive)
GI50 [26]: > 100 µM (inactive)
GI50 [27]: 36.1 µM (inactive)
GI50 [28]: 16.4 µM (inactive)
GI50 [29]: 14.6 µM (inactive)
GI50 [57]: 13.2 µM (inactive)
GI50 [30]: 14.7 µM (inactive)
GI50 [31]: 24.4 µM (inactive)
GI50 [32]: 24.5 µM (inactive)
GI50 [33]: 21.9 µM (inactive)
GI50 [34]: 26.4 µM (inactive)
GI50 [35]: > 100 µM (inactive)
GI50 [36]: 19.8 µM (inactive)
GI50 [37]: 33.4 µM (inactive)
GI50 [38]: 16.9 µM (inactive)
GI50 [39]: 29.6 µM (inactive)
GI50 [40]: 15.2 µM (inactive)
GI50 [41]: 20.3 µM (inactive)
GI50 [42]: > 100 µM (inactive)
GI50 [43]: 22.3 µM (inactive)
GI50 [44]: 28.2 µM (inactive)
GI50 [45]: 20.6 µM (inactive)
GI50 [46]: 17.7 µM (inactive)
GI50 [47]: 28.8 µM (inactive)
GI50 [48]: 25.2 µM (inactive)
GI50 [49]: 19.7 µM (inactive)
GI50 [50]: 18.6 µM (inactive)
GI50 [51]: 30.5 µM (inactive)
GI50 [52]: 19.6 µM (inactive)
GI50 [53]: 26.5 µM (inactive)
GI50 [54]: 23.4 µM (inactive)
GI50 [55]: 25.8 µM (inactive)

CCN1CCC(C)OP1(=O)Cc1ccccc1 (stereo not drawn)
GI50 [1]: > 100 µM (inactive)
GI50 [2]: > 100 µM (inactive)
GI50 [3]: > 100 µM (inactive)
GI50 [4]: > 100 µM (inactive)
GI50 [5]: > 100 µM
GI50 [6]: > 100 µM (inactive)
GI50 [7]: > 100 µM (inactive)
GI50 [9]: > 100 µM (inactive)
GI50 [10]: > 100 µM (inactive)
GI50 [11]: > 100 µM (inactive)
GI50 [12]: > 100 µM (inactive)
GI50 [13]: > 100 µM (inactive)
GI50 [14]: > 100 µM (inactive)
GI50 [15]: > 100 µM (inactive)
GI50 [16]: > 100 µM (inactive)
GI50 [18]: > 100 µM (inactive)
GI50 [19]: > 100 µM (inactive)
GI50 [20]: > 100 µM (inactive)
GI50 [22]: 46.5 µM (inactive)
GI50 [23]: > 100 µM (inactive)
GI50 [24]: > 100 µM (inactive)
GI50 [25]: > 100 µM (inactive)
GI50 [26]: > 100 µM (inactive)
GI50 [28]: > 100 µM (inactive)
GI50 [29]: > 100 µM (inactive)
GI50 [57]: > 100 µM (inactive)
GI50 [30]: > 100 µM (inactive)
GI50 [31]: > 100 µM (inactive)
GI50 [32]: > 100 µM (inactive)
GI50 [33]: > 100 µM (inactive)
GI50 [34]: > 100 µM (inactive)
GI50 [36]: > 100 µM (inactive)
GI50 [37]: > 100 µM (inactive)
GI50 [39]: > 100 µM (inactive)
GI50 [41]: > 100 µM (inactive)
GI50 [42]: > 100 µM (inactive)
GI50 [43]: > 100 µM (inactive)
GI50 [44]: > 100 µM (inactive)
GI50 [45]: > 100 µM (inactive)
GI50 [46]: > 100 µM (inactive)
GI50 [47]: > 100 µM (inactive)
GI50 [48]: > 100 µM (inactive)
GI50 [50]: > 100 µM (inactive)
GI50 [51]: > 100 µM (inactive)
GI50 [52]: > 100 µM (inactive)
GI50 [54]: > 100 µM (inactive)
GI50 [55]: > 100 µM (inactive)

Cc1cc(Br)c(O)c(-c2cscn2)c1
GI50 [2]: 23.6 µM (inactive)
GI50 [3]: 18 µM (inactive)
GI50 [5]: 5.57 µM
GI50 [6]: 4.81 µM (inactive)
GI50 [7]: 24 µM (inactive)
GI50 [8]: 10.5 µM (inactive)
GI50 [9]: 15.2 µM (inactive)
GI50 [10]: > 10 µM (inactive)
GI50 [11]: 12.7 µM (inactive)
GI50 [12]: 19 µM (inactive)
GI50 [13]: 54.6 µM (inactive)
GI50 [15]: 33.1 µM (inactive)
GI50 [16]: 20.6 µM (inactive)
GI50 [17]: 6.55 µM (inactive)
GI50 [18]: 10.3 µM (inactive)
GI50 [19]: 19.3 µM (inactive)
GI50 [20]: 24.2 µM (inactive)
GI50 [21]: 19.5 µM (inactive)
GI50 [22]: 52.5 µM (inactive)
GI50 [23]: 14.4 µM (inactive)
GI50 [24]: 14 µM (inactive)
GI50 [25]: 20 µM (inactive)
GI50 [56]: 23.7 µM (inactive)
GI50 [26]: 20.2 µM (inactive)
GI50 [27]: 3.66 µM (inactive)
GI50 [29]: 12.7 µM (inactive)
GI50 [30]: 22.9 µM (inactive)
GI50 [31]: 21.4 µM (inactive)
GI50 [33]: 14.6 µM (inactive)
GI50 [34]: 12.6 µM (inactive)
GI50 [36]: 10.2 µM (inactive)
GI50 [37]: 23.2 µM (inactive)
GI50 [39]: 2.43 µM (inactive)
GI50 [42]: 22.5 µM (inactive)
GI50 [44]: 21.8 µM (inactive)
GI50 [45]: 10.9 µM (inactive)
GI50 [47]: 20.7 µM (inactive)
GI50 [48]: 10.9 µM (inactive)
GI50 [49]: 19.3 µM (inactive)
GI50 [50]: 16.8 µM (inactive)
GI50 [51]: 12.3 µM (inactive)
GI50 [52]: 22.4 µM (inactive)
GI50 [54]: 7.64 µM (inactive)
GI50 [55]: 27.3 µM (inactive)
